{"source": "patent US9512108B2", "about": "“9,9,10,10-Tetrafluoro-9,10-dihydrophenanthrene hepatitis C virus inhibitor and application thereof” (NANJING SANHOME PHARMACEUTICAL CO., LTD., priority 2013, dated 2016)", "format_in_all_cases": "cell-based", "key": {"HCV genotype 1b replicon": {"system": "HCV genotype 1b replicon", "experiment": "Anti-HCV-1b replicon activity (luciferase, Bright-Glo)", "conditions": "Hepatitis C virus, Huh-7, 72 h, read-out: EC50 against HCV-1b replicon", "method": "(§1) Each of the compounds prepared in the above examples of the present invention was dissolved at 10 mM in DMSO, then diluted to 50 μM with DMEM complete medium, then diluted to 20 nM with complete medium containing 0.5% DMSO, and then serially diluted by 3-fold, to obtain a total of 10 concentrations.\n(§2) HCV 1b replicon cells, i.e., Huh7 cell line stably transfected with HCV genotype 1b replicon, were provided by WuXi AppTec (Shanghai) Co., Ltd. Specific preparation methods of Huh7 lb replicon cell system can be found in Lohmann V, Korner F, Koch J, Herian U, Theilmann L, Bartenschlager R., Replication of subgenomic hepatitis C virus RNAs in a hepatoma cell line, Science 285 (5424): 110-113 (1999).\n(§3) 1) Preparation of compounds: adding 75 μl of the compounds of the present invention at the above concentration gradient to a 96-well plate using POD810 system, with each concentration for each compound in duplicate;\n(§4) 2) Preparation of cells: collecting HCV 1b replicon cells in logarithmic phase and resuspending them in DMEM complete medium, and then adding 75 μl of the cell suspension to each well of the above 96-well plate (8×10^3 cells/well); at the same time, establishing zero percent effect (ZPE) control group and hundred percent effect (HPE) control group, with ZPE group using complete culture medium containing 0.5% DMSO instead of the compound, and the HPE group merely containing DMEM medium in the wells.\n(§5) 3) Cell culture: placing the 96-well plate in a 37° C., 5% CO2 incubator and culturing for 3 days.\n(§6) 5) Anti-HCV replicon activity assay: adding luciferase luminescence substrate Bright-Glo to each well, and detecting luminescence signal values using the multimode microplate reader within 5 min, with the raw data (RLU) being used for calculation of the anti-HCV activities of the compounds;\n(§7) 6) Data processing: processing the raw data using the following formula into the inhibition percentage of the compound against HCV replicon (Inhibition %) and the percentage of cell viability (Viability %): Inhibition %=(RLUZPE−RLUCPD)/(RLUZPE−RLUHPE)×100 Viability %=(RFUCPD−RFUHPE)/(RFUZPE−RFUHPE)×100 wherein CPD: the fluorescence signal value of the well of the compound; ZPE (zero percent effect): the fluorescence signal value of the zero percent effect control; HPE (hundred percent effect): the fluorescence signal value of the hundred percent effect control.\n(§8) The Inhibition % and Viability % were introduced into GraphPad Prism software for data processing, respectively, to obtain the half effective concentration EC50 of the compound against HCV replicon and the half cytotoxic concentration CC50."}, "[1]": {"experiment": "Cell viability test (CellTiter-Fluor) in HCV 1b replicon cells", "conditions": "human, Huh7 cells stably transfected with HCV genotype 1b replicon; HCV 1b replicon Huh7 cells, 3 days culture; read-out: CC50 (half cytotoxic concentration)", "method": "as §1, §2, §3, §4, §5\n(§9) 4) Cell viability test: after adding detection reagent for fluorescence assay of cell growth to each well and culturing the cells in a 37° C., 5% CO2 incubator for one hour, detecting the fluorescence signal values using the multimode microplate reader, with the raw data (RFU) being used for calculation of the cytotoxicity of the compounds;\nas §7, §8"}, "HCV genotype 1a replicon": {"system": "HCV genotype 1a replicon", "experiment": "Anti-HCV-1a replicon activity (luciferase, Bright-Glo)", "conditions": "Hepatitis C virus, Huh-7, 72 h, read-out: EC50 against HCV-1a replicon", "method": "as §3, §4, §5, §6, §7, §8\n(§10) HCV 1a replicon cells, i.e., Huh7 cell line stably transfected with HCV genotype 1a replicon (provided by WuXi AppTec (Shanghai) Co., Ltd.) were used as the experimental cells. As described above for the HCV 1b replicon cell system, the HCV genotype 1a replicon cell systems were similarly prepared.\n(§11) The anti-HCV-1a activities of the compounds of the present invention were tested according to the method for testing the anti-HCV-1b replicon activity in Experimental Example 1."}, "[2]": {"experiment": "Cell viability test (CellTiter-Fluor) in HCV 1a replicon cells", "conditions": "human, Huh7 cells stably transfected with HCV genotype 1a replicon; HCV 1a replicon Huh7 cells, 3 days culture; read-out: CC50 (half cytotoxic concentration)", "method": "as §9, §7, §8, §10, §11"}}}
{"molecule": "COC(=O)N[C@H](C(=O)N1CC2(C[C@H]1c1ncc(-c3ccc4c(c3)C(F)(F)C(F)(F)c3cc(-c5ccc6nc([C@@H]7CCCN7C(=O)[C@@H](NC(=O)OC)C(C)C)[nH]c6c5)ccc3-4)[nH]1)OCCO2)C(C)C", "note": "[Example 11, Methyl N-((2S)-1-((S)-2-(6-(7-((S)-2-(7-((S)-2-((methoxycarbonyl)amino)-3-methylbutanoyl)-1,4-dioxa-7-azaspiro[4.4]nonan-8-yl)-1H-imidazol-5-yl)-9,9,10,10-tetrafluoro-9,10-dihydrophenanthren-2-yl)-1H-benzo[d]imidazol-2-yl)pyrrolidin-1-yl)-3-methyl-1-oxobutan-2-yl)carbamate]", "values": [{"measurement": "EC50", "setting": "HCV genotype 1b replicon", "result": 0.006, "unit": "nM"}, {"measurement": "CC50 at 3 days", "setting": "[1]", "result": "> 10", "unit": "nM"}, {"measurement": "EC50", "setting": "HCV genotype 1a replicon", "result": 0.079, "unit": "nM"}, {"measurement": "CC50 at 3 days", "setting": "[2]", "result": "> 10", "unit": "nM"}]}
{"molecule": "COC(=O)N[C@H](C(=O)N1CCC[C@H]1c1ncc(-c2ccc3c(c2)C(F)(F)C(F)(F)c2cc(-c4cnc([C@@H]5CC6(CN5C(=O)[C@@H](NC(=O)OC)C(C)C)OCCO6)[nH]4)ccc2-3)[nH]1)C(C)C", "note": "[Example 14, Methyl N-((2S)-1-((S)-2-(5-(7-((S)-2-(7-((S)-2-((methoxycarbonyl)amino)-3-methylbutanoyl)-1,4-dioxa-7-azaspiro[4.4]nonan-8-yl)-1H-imidazol-5-yl)-9,9,10,10-tetrafluoro-9,10-dihydrophenanthren-2-yl)-1H-imidazol-2-yl)pyrrolidin-1-yl)-3-methyl-1-oxobutan-2-yl)carbamate]", "values": [{"measurement": "EC50", "setting": "HCV genotype 1b replicon", "result": 0.006, "unit": "nM"}, {"measurement": "CC50 at 3 days", "setting": "[1]", "result": "> 10", "unit": "nM"}, {"measurement": "EC50", "setting": "HCV genotype 1a replicon", "result": 0.15, "unit": "nM"}, {"measurement": "CC50 at 3 days", "setting": "[2]", "result": "> 10", "unit": "nM"}]}
